Data published in ChEMBL document CHEMBL1201862, “PubChem BioAssay data set” (2004).
Activity calls are given as the source filed them.

How the values were obtained:
[1] = Luminescence-based cell-based high throughput dose response assay to identify activators of the DAF-12 from the parasite S. stercoralis (ssDAF-12).; format: functional
[2] = biological target: T1, Oxysterols receptor LXR-beta (Homo sapiens, UniProt P55055); experiment: LXR agonists, Gal4 luciferase reporter, dose response, counter-screen for ssDAF-12 agonist project, cell-based, luminescence, HEK293, S. stercoralis campaign (AID 720737); format: functional; conditions: read-out: IC50 (the source's name)
T1 sequence (P55055 whole entry): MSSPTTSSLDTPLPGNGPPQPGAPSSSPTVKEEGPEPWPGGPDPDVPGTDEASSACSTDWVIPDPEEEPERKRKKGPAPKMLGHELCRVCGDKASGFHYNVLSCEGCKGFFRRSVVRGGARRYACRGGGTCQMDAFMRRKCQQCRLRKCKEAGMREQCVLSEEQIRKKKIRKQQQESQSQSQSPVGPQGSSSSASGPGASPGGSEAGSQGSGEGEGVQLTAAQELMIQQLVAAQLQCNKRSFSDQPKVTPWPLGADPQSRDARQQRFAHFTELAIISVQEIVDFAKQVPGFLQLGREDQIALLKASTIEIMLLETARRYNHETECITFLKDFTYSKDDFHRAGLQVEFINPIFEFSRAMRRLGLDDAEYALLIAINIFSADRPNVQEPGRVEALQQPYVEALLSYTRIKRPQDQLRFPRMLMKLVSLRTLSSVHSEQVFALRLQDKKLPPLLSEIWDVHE

[3] = viability of uninfected HEp-2 cells – cell-based, HTS, cytotoxicity control for RSV inhibitor project, dose response (AID 2410); format: functional; conditions: human respiratory syncytial virus
[4] = biological target: T2, Mannose-6-phosphate isomerase (Homo sapiens, UniProt P34949); experiment: MPI inhibition at elevated mannose 6-phosphate – biochemical, fluorescence intensity, high mannose 6-phosphate, primary screen (AID 1220)
T2 sequence (P34949 whole entry): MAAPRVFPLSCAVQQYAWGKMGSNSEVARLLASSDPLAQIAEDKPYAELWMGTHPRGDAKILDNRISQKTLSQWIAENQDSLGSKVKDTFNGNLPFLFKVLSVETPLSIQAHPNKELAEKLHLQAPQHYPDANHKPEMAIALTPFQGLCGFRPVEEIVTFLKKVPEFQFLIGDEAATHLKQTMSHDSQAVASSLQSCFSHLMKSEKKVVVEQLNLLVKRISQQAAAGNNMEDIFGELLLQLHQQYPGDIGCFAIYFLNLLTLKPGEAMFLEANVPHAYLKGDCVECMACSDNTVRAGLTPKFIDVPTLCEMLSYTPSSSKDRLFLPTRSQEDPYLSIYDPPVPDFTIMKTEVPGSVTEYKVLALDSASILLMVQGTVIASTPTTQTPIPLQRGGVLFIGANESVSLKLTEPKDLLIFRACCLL

[5] = viability loss in HEK293T cells – cell-based, cherry-picks, cytotoxicity control for HIV Vif inhibitor project, dose response (AID 652208); format: functional
[6] = reduction of Shn3 3'UTR-driven luciferase in osteoblasts – cell-based, Clone20 osteoblasts, firefly luciferase, cherry-picked, dose response (AID 624132); format: functional;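 also: firefly luciferase luminescence from reporter carrying the Shn3 3'UTR in osteoblasts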
[7] = loss of viability in HepG2 cells – cell-based, CellTiter-Glo, cherry-picked, cytotoxicity control for Shn3 inhibitor project, dose response (AID 624134); format: functional
[8] = non-specific 3'UTR reporter inhibition in Clone20-Shn3RL – cell-based, Renilla luciferase, cherry-picked, counter-screen for Shn3 inhibitor project, dose response (AID 624133); format: functional
[9] = A549 cell cytotoxicity, dose response, cytotoxicity control, plate reader, cherry-pick, antagonist series (AID 743412); format: functional, cell-based
[10] = toxicity toward HepG2 liver cells – cell-based, plate reader, cherry-pick, antagonist series, cytotoxicity control, dose response (AID 743416); format: functional
[11] = blockers of bursicon-stimulated LGR2 cAMP reporter – cell-based, HEK293, CRE-luciferase reporter, cherry pick, set 2, dose response (AID 743343); format: functional;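 also: transfected cells were stimulated with diluted bursicon conditioned medium after compound addition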
[12] = blockade of melanocortin 4 receptor signaling – cell-based, plate reader, cherry pick, counter-screen for LGR2 antagonist project, dose response (AID 743444); format: functional;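 also: transfected HEK 293 cells stimulated with alpha-MSH peptide; potency of inhibitors of the alpha-MSH evoked signal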
[13] = viability loss in HEK293 cells – cell-based, plate reader, cherry-picked samples, cytotoxicity control, dose response (AID 743446); format: functional
[14] = biological target: T1, Oxysterols receptor LXR-beta; format: functional, cell-based

Compound: O=C(CNC(=O)c1cccs1)OCC(=O)c1ccc(Cl)cc1
- IC50 [1]: > 67.5 µM (inactive)
- EC50 [2]: > 67.5 µM (inactive)

Compound: CC(C)C/N=C/c1c(O)c([N+](=O)[O-])cc2oc3c(c12)CCCC3
- CC50 [3]: 25.3 µM (active)
- IC50 [4]: > 50 µM (not active)

Compound: CCOC(=O)N1CCN(c2c(NCc3ccc(Cl)cc3)c(=O)c2=O)CC1
- AC50 [5]: > 52 µM (inactive)

Compound: CC(C)c1ccc(NC(=O)Nc2nc(C(N)c3ccccc3)cs2)cc1 (configuration not stated)
- AC50 [6]: 2.48 µM (active)
- AC50 [7]: 13.5 µM (active)
- AC50 [8]: 15.4 µM (active)
- AC50 [9]: 7.84 µM (active)
- AC50 [10]: 8.5 µM (active)
- AC50 [11]: 25.5 µM (active)
- AC50 [12]: 29 µM (active)
- AC50 [13]: 16 µM (active)

Compound: Cc1cc(-c2nc3ccccc3s2)ccc1N
- IC50 [1]: > 67.6 µM (inactive)
- EC50 [2]: > 67.6 µM (inactive)
- EC50 [14]: > 67.6 µM (inactive)
- EC50 (cells): > 67.6 µM (inactive)

Compound: Cn1cccc1C(=O)OCc1csc(-c2ccccc2)n1
- IC50 [1]: > 67.5 µM (inactive)
- EC50 [2]: > 67.5 µM (inactive)
- EC50 [14]: > 67.5 µM (inactive)
- EC50 (cells): > 67.5 µM (inactive)

Compound: COc1ccc(C=C2CS(=O)(=O)CC(=Cc3ccc(OC)cc3)C2=O)cc1
- AC50 [5]: 4.33 µM (active)
